Experimental data from patent US20240252677A1, “ONE-COMPONENT DELIVERY SYSTEM FOR NUCLEIC ACIDS” (The Trustees of the University of Pennsylvania, priority 2021, published 2024).

Experiments:
[1] = tested on: HEK293T cells; assay: In vitro Luc-mRNA transfection, luciferase luminescence expression in HEK293T cells; format: cell-based, human; design: unit not given here; details: Table 16; HEK 293T cells, 125 ng/well, n=3
Procedure, shortened: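 HEK293T cells were transfected with nucleoside-modified firefly luciferase mRNA at 125 ng/well delivered in the test particles. TransIT and MC3-based LNPs at equal mRNA dose served as comparators. After 24 h (18-20 h in some runs) at 37° C the cells were lysed, and luciferase luminescence was read on a luminometer, in triplicate.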

[2] = tested on: BALB/c mice; assay: In vivo mRNA delivery in mice with DNPs, whole-body bioluminescence imaging (IVIS)
Experimental: (§1) The exposure time was 1 min.
Luminescence characterization for in vivo transfection experiments employed bioluminescence imaging with an IVIS Spectrum imaging system (PerkinElmer, Waltham, MA). Mice were anesthetized with 3% of isoflurane (Piramal Healthcare Limited) and intraperitoneally (i.p.) administered with D-luciferin (Regis Technologies) at a dose of 150 mg/kg of body weight. Ten minutes post administration of D-luciferin, mice were placed on the imaging platform while being maintained on isoflurane via a nose cone and imaged using an exposure time of 60 seconds. […] To quantify luminescent flux, an oval ROI was placed over each organ of interest and analyzed.
(§2) Tissue luminescence signal was measured on the IVIS imaging system using an exposure time of 60 seconds using medium binning (binning=8) to ensure that the signal obtained was within operative detection range. […] Bioluminescence imaging was performed as described above.
Luminescence Characterization for In Vivo Transfection Experiments: bioluminescence imaging was performed with an IVIS Spectrum imaging system (PerkinElmer, Waltham, MA).

[3] = tested on: spleen; assay: In vivo mRNA delivery, IVIS imaging of organs: spleen; design: species or system mice; key to Organs with luminescence: spleen: strong: Strong meant the luminescence intensity in that organ was relatively high, compared to other organs; weak: Weak meant the luminescence intensity in that organ was relatively low, compared to other organs; details: Table 17; mice, IVIS, 4-6 h after injection; intensity relative to other organs
Experimental: as §1, §2
Tissue luminescence signal was measured on the IVIS imaging system using a certain exposure time (60, 30 or 15 seconds) and medium binning (binning=8) to ensure that the signal obtained was within operative detection range.

[4] = Table 20, nonsymmetric IAJDs and MC3-Luc-mRNA

| SMILES | Luminescence [1] | In vivo activity (total flux, p/s) ([2]; Table 19, nonsymmetric IAJDs) | In vivo activity (total flux, p/s) [2, 4] | Organs with luminescence: spleen [3] |
| --- | --- | --- | --- | --- |
| CCCCCCCCCCCOc1cc(COC(=O)CCCN2CCN(CCO)CC2)cc(OCC(CC)CCCC)c1 (stereo not drawn) [IAJD 130, 3-((2-Ethylhexyl)oxy)-5-(undecyloxy)benzyl 4-(4-(2-hydroxyethyl)piperazin-1-yl)butanoate] | 76,345 | 1.18 × 10^8 p/s | 1.18 × 10^8 p/s | spleen (strong) |
| CCCCCCCCCCCCCCCOc1cc(COC(=O)CCCN2CCN(C)CC2)cc(OCC(CC)CCCC)c1 (stereo not drawn) [IAJD 135, 3-((2-Ethylhexyl)oxy)-5-(pentadecyloxy)benzyl 4-(4-methylpiperazin-1-yl)butanoate] | 432 | 1.22 × 10^7 p/s |  | spleen (weak) |
| CCCCCCCCCCCCCCCOc1cc(COC(=O)CCCN2CCN(CCO)CC2)cc(OCC(CC)CCCC)c1 (stereo not drawn) [IAJD 136, 3-((2-Ethylhexyl)oxy)-5-(pentadecyloxy)benzyl 4-(4-(2-hydroxyethyl)piperazin-1-yl)butanoate] | 283,656 | 1.04 × 10^7 p/s |  | spleen (strong) |
| CCCCCCCCCCCCCCCOc1cc(COC(=O)CCCN2CCN(CCO)CC2)cc(OCCCCCCCC)c1 [IAJD 138, 3-(Octyloxy)-5-(pentadecyloxy)benzyl 4-(4-(2-hydroxyethyl)piperazin-1-yl)butanoate] | 102,620 | 1.49 × 10^7 p/s |  | spleen (strong) |
| CCCCCCCCCCCCCCCOc1cc(COC(=O)CCCN2CCN(C)CC2)cc(OCCCCCCCCCC)c1 [IAJD 141, 3-(Decyloxy)-5-(pentadecyloxy)benzyl 4-(4-methylpiperazin-1-yl)butanoate] | 140,589 | 2.06 × 10^7 p/s |  | spleen (strong) |
| CCCCCCCCCCCCCCCOc1cc(COC(=O)CCCN2CCN(CCO)CC2)cc(OCCCCCCCCCC)c1 [IAJD 142, 3-(Decyloxy)-5-(pentadecyloxy)benzyl 4-(4-(2-hydroxyethyl)piperazin-1-yl)butanoate] | 463,750 | 2.51 × 10^7 p/s |  | spleen (strong) |
| CCCCCCCCCCCCCCCOc1cc(COC(=O)CCCN2CCN(C)CC2)cc(OCCCCCCCCCCCC)c1 [IAJD 143, 3-(Dodecyloxy)-5-(pentadecyloxy)benzyl 4-(4-methylpiperazin-1-yl)butanoate] | 71,851 | 1.28 × 10^7 p/s |  | spleen (strong) |
| CCCCCCCCCCCCCCCOc1cc(COC(=O)CCCN2CCN(CCO)CC2)cc(OCCCCCCCCCCCC)c1 [IAJD 144, 3-(Dodecyloxy)-5-(pentadecyloxy)benzyl 4-(4-(2-hydroxyethyl)piperazin-1-yl)butanoate] | 253,672 | 1.39 × 10^7 p/s |  | spleen (strong) |
| CCCCCCCCCCCCCCCOc1cc(COC(=O)CCCN2CCN(C)CC2)cc(OCCCCCCCCCCCCC)c1 [IAJD 145, 3-(pentadecyloxy)-5-(tridecyloxy)benzyl 4-(4-methylpiperazin-1-yl)butanoate] | 296 | 9.25 × 10^6 p/s |  | spleen (strong) |
| CCCCCCCCCCCCCCCOc1cc(COC(=O)CCCN2CCN(CCO)CC2)cc(OCCCCCCCCCCCCC)c1 [IAJD 146, 3-(Pentadecyloxy)-5-(tridecyloxy)benzyl 4-(4-(2-hydroxyethyl)piperazin-1-yl)butanoate] | 50,625 | 4.70 × 10^7 p/s |  | spleen (strong) |
| CCCCCCCCCCCCCCCOc1cc(COC(=O)CCCN2CCN(C)CC2)cc(OCCCCCCCCCCCCCC)c1 [IAJD 147, 3-(Pentadecyloxy)-5-(tetradecyloxy)benzyl 4-(4-methylpiperazin-1-yl)butanoate] | 5,844 | 9.24 × 10^6 p/s |  | spleen (strong) |
| CCCCCCCCCCCCCCCOc1cc(COC(=O)CCCN2CCN(CCO)CC2)cc(OCCCCCCCCCCCCCC)c1 [IAJD 148, 3-(Pentadecyloxy)-5-(tetradecyloxy)benzyl 4-(4-(2-hydroxyethyl)piperazin-1-yl)butanoate] | 139,420 | 6.33 × 10^7 p/s |  | spleen (strong) |
| CCCCCCCCCCCCCCCCOc1cc(COC(=O)CCCN2CCN(C)CC2)cc(OCCCCCCCCCCCCCCC)c1 [IAJD 149, 3-(Hexadecyloxy)-5-(pentadecyloxy)benzyl 4-(4-methylpiperazin-1-yl)butanoate] | 149,935 | 2.26 × 10^7 p/s |  | spleen (strong) |
| CCCCCCCCCCCCCCCCOc1cc(COC(=O)CCCN2CCN(CCO)CC2)cc(OCCCCCCCCCCCCCCC)c1 [IAJD 150, 3-(Hexadecyloxy)-5-(pentadecyloxy)benzyl 4-(4-(2-hydroxyethyl)piperazin-1-yl)butanoate] | 134,225 | 3.47 × 10^7 p/s |  | spleen (strong) |
| CCCCCCCCCCCCCCCCCOc1cc(COC(=O)CCCN2CCN(C)CC2)cc(OCCCCCCCCCCCCCCC)c1 [IAJD 151, 3-(Heptadecyloxy)-5-(pentadecyloxy)benzyl 4-(4-methylpiperazin-1-yl)butanoate] | 9,310 | 3.12 × 10^7 p/s |  | spleen (strong) |
| CCCCCCCCCCCCCCCCCOc1cc(COC(=O)CCCN2CCN(CCO)CC2)cc(OCCCCCCCCCCCCCCC)c1 [IAJD 152, 3-(Heptadecyloxy)-5-(pentadecyloxy)benzyl 4-(4-(2-hydroxyethyl)piperazin-1-yl)butanoate] | 88,202 | 1.97 × 10^7 p/s |  | spleen (strong) |
| CCCCCCCCCCCCCCCCCCOc1cc(COC(=O)CCCN2CCN(C)CC2)cc(OCCCCCCCCCCCCCCC)c1 [IAJD 153, 3-(Octadecyloxy)-5-(pentadecyloxy)benzyl 4-(4-methylpiperazin-1-yl)butanoate] | 8,860 | 7.33 × 10^7 p/s | 7.33 × 10^7 p/s | spleen (strong) |
| CCCCCCCCCCCCCCCCCCOc1cc(COC(=O)CCCN2CCN(CCO)CC2)cc(OCCCCCCCCCCCCCCC)c1 [IAJD 154, 3-(Octadecyloxy)-5-(pentadecyloxy)benzyl 4-(4-(2-hydroxyethyl)piperazin-1-yl)butanoate] | 17,871 | 2.39 × 10^7 p/s | 2.39 × 10^7 p/s | spleen (strong) |
| CCCCCCCCCCCCCOc1cc(COC(=O)CCCN2CCN(C)CC2)cc(OCC(CC)CCCC)c1 (stereo not drawn) [IAJD 161, 3-((2-Ethylhexyl)oxy)-5-(tridecyloxy)benzyl 4-(4-methylpiperazin-1-yl)butanoate] | 128 | 8.48 × 10^7 p/s |  | spleen (strong) |
